Assay results taken from patent US11771669B2, “Topical composition and delivery system and its use” (SBG MEDICAL TECHNOLOGIES, INC., priority 2012, dated 2023).

Key:
[1] = test system: rat cornea; details: topical application onto the rat cornea, cited from earlier work
[2] = test system: acute pain; details: 34 subjects
Protocol: As indicated, 10 mL of venous blood was collected throughout the study period, at time intervals likely to capture peak and trough levels (Greenblatt D J et al. (1985). Arch Otolaryngol 111: 2988-3000); (Baumann L S, et al. (2010). J Drugs Dermatol 9: 1500-1504). Each subject provided self-rated pain evaluations at those same time intervals, focusing on pain at the identified site of acute pain and of drug application, using the 1-10 Visual Analog Scale (VAS) (Meier T, et al. (2003). Pain 106: 151-158).
The central data used to describe efficacy was the 10-point VAS. While this measure is subjective, the study subjects were requested specifically to be consistent in their pain estimates.

[3] = animal models, topical; cited from earlier work

Molecule: O=C(O)CN(CCN(CC(=O)O)CC(=O)O)CC(=O)O [EDTA, ethylenediaminetetraacetic acid]
- Ocular uptake of C14 EDTA, applied with MSM ([1]; with MSM): uptake of the C^14 EDTA in all tested ocular tissues
- Ocular penetration of EDTA, without MSM ([1]; without MSM): did not penetrate the eye

Molecule: CCN(CC)CC(=O)Nc1c(C)cccc1C [lidocaine, 2-(diethylamino)-N-(2,6-dimethylphenyl)acetamide]
- Number of subjects with maximum pain relief at the 1 hour point ([2]; doses at 0 and 4 h): 9 subjects
- Subjects whose time elapsed to reach maximal pain reduction was 1 h ([2]; doses at 0 and 4 h): 27%
- Subjects whose time elapsed to reach maximal pain reduction was 3 h ([2]; doses at 0 and 4 h): 21%
- Subjects whose time elapsed to reach maximal pain reduction was 5 h ([2]; doses at 0 and 4 h): 18%
- Subjects whose time elapsed to reach maximal pain reduction was 7 h ([2]; doses at 0 and 4 h): 9%
- Subjects whose time elapsed to reach maximal pain reduction was 9 h ([2]; doses at 0 and 4 h): 12%
- Subjects whose time elapsed to reach maximal pain reduction was 11 h ([2]; doses at 0 and 4 h): 6%
- Number of subjects with pain relief at 50% or better ([2]; maximal pain reduction): 28 of 34
- Subjects with pain reduction of 50% or greater ([2]; maximal pain reduction): 82%

Molecule: methylsulfonylmethane [MSM]
- Toxicity when administered topically (in words) [3]: very low toxicity
